These results are taken from PubChem BioAssay AID540271 (Broad Institute, 2011).

Several values for one entry are separate records, joined by “and”; a condition that tells them apart may be missing. Identical values can stand only once. Activity calls are given as the source filed them. The rule behind the calls is not given here.

This test relates to S. cerevisiae expressing PfHSP40, growth rescue, plate reader. Briefly: S cerevisiae expressing PfHSP40, growth rescue, cherry pick dose confirmatory, plate reader (AID 540271).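 Note: yeast growth read after three days of incubation at 30 °C.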
`COc1cccc(NC=C2C(=O)OC3(CCCCC3)OC2=O)c1`: the AC50 was 9.91 µM. As for `C=CCN(CC=C)C(=S)NC(=O)c1ccc(OC)c(Br)c1`, the AC50 is 7.96 µM. Turning to `CN(C)c1nc(-c2ccccn2)nnc1-c1ccccc1`, the AC50 is 5.25 µM.

On to `Cc1ccc(NC(=S)Nc2cccc3cnccc23)cc1C`, for which the AC50 was > 12 µM (inactive). In the case of `O=P(Nc1cccnc1)(Oc1ccccc1Cl)Oc1ccccc1Cl`, the AC50 was 6.5 µM. For `CC(C)(C)C(O)C(Cc1ccccc1Cl)n1cncn1` (stereo not given), the AC50 is 0.215 µM. Consider `CC(/C=N/n1c(COc2ccccc2)n[nH]c1=S)=C\c1ccccc1`, for which the AC50 is 4.55 µM. The result for `CC1(C)C2CCC1(C)C(OC(=O)c1ccc(O)cc1)C2` (stereo not given) reads 4.38 µM; that for `CCc1nc2ccccc2c(=O)n1NC(=O)c1c(O)c2ccccc2n(CC)c1=O`, 5.74 µM.

`CCn1c2ccc(C)cc2c2nc3cc(C(=O)O)ccc3nc21`: the AC50 is 2.57 µM.

For the compound `Clc1ccccc1C(c1ccccc1)(c1ccccc1)n1ccnc1`, the half-maximal activity concentration (AC50) is 0.387 µM. On to `Cc1nnc(N/N=C/c2cccc(OCc3ccc(Cl)c(Cl)c3)c2)n1N`, for which the AC50 is > 12 µM (inactive). With `CNC1=C(N(C(C)=O)c2ccc(Br)cc2)C(=O)c2ccccc2C1=O`, the AC50 is 6.77 µM.

Turning to `O=C1N(c2ccc(Cl)cc2)C(c2cccnc2)N2CCCN12` (stereo not given), the AC50 was 6.03 µM. For the compound `O=C1c2ccccc2NC(c2ccc(-c3cccc([N+](=O)[O-])c3)o2)N1O` (stereo not given), the AC50 was 4.69 µM. Consider `CSC(=S)N/N=C/c1ccccc1`, for which the concentration at half-maximal activity (AC50) was 5.83 µM. On to `O=c1c(-c2cccc3ccccc23)[n+]([O-])c2ccccc2n1O`, for which the AC50 was 10.4 µM.

On to `Cc1ccoc1C(=O)Nc1cccc(Oc2ccccc2)c1`, for which the AC50 is 2.85 µM.

Take `CC1CCc2sc(-c3n[nH]c(=S)o3)cc2C1` (stereo not given): the AC50 is 5.69 µM.

Regarding `CCC1=NN(C(=O)c2cccc(Br)c2)C(O)(c2ccc(Br)cc2)C1` (stereo not given), the AC50 is 5.92 µM. The result for `COC(=O)C1=C(C)NC(C)=C(C(=O)OCC(C)C)C1c1ccccc1[N+](=O)[O-]` (stereo not given) reads 5.87 µM; that for `S=C1SCN(Cc2cccnc2)CN1Cc1cccnc1`, 4.06 µM. For the compound `CCC(=O)NC(c1cc(Cl)c2cccnc2c1O)C(C)C` (stereo not given), the AC50 was 5.29 µM. With `O=C(COc1ccc([N+](=O)[O-])cc1)Nc1nc(-c2ccccn2)cs1`, the AC50 was 5.37 µM.

Consider `CCC(=O)NC(c1ccco1)c1cc(Cl)c2cccnc2c1O` (stereo not given), for which the AC50 is 2.99 µM.

Regarding `C[n+]1c2cc(N)ccc2cc2ccc(N)cc21`, the AC50 was 1.82 µM and 1 µM. On to `CCOc1cc([N+](=O)[O-])cc(/C=N/NC(=O)c2c(-c3ccccc3)noc2C)c1O`, for which the concentration at half-maximal activity (AC50) was 4.9 µM. The result for `Oc1ccccc1-c1cc(-c2ccc3c(c2)OCCO3)n[nH]1` reads 5.24 µM; that for `Cc1csc2nc(O)c(C(=O)NCCCc3ccccc3)c(=O)n12`, 4.55 µM.

For `O=[N+]([O-])c1ccc(S(=O)Cc2ccccc2)c([N+](=O)[O-])c1` (stereo not given), the AC50 was 1.75 µM.

With `COc1cccc(/C=N/Nc2ncnc3scc(-c4ccccc4)c23)c1O`, the AC50 is 1.7 µM. As for `Cc1ccc(S(=O)(=O)Nc2ccc(O)c3cccnc23)cc1`, the figure is > 12 µM (inactive); as for `O=C(NNC(=O)c1cc(Cl)ccc1O)c1cccc(S(=O)(=O)N2CCOCC2)c1`, 5.28 µM; as for `Cc1ccc(NC(=O)c2cc(N3C(=O)C=CC3=O)ccc2Cl)cc1C`, 1.63 µM. For `CCC(Oc1ccc(Br)cc1Cl)C(=O)Nc1nnc(C2CC2)s1` (stereo not given), the AC50 is 4.51 µM.

On to `CC(=O)Nc1ccc2c(c1)Cc1cc(N3C(=O)C=CC3=O)ccc1-2`, for which the AC50 was 0.526 µM. As for `COc1cccc(C(=O)Nc2sc(C(C)C)cc2C(N)=O)c1OC`, the figure is 5.46 µM; as for `O=C(COC(=O)c1ccc([N+](=O)[O-])o1)NCc1ccc(F)cc1`, 6.66 µM; as for `CC(C)C(=O)NC(c1ccco1)c1ccc2cccnc2c1O` (stereo not given), 4.51 µM. As for `CCC(Oc1ccccc1)C(=O)Nc1ncc([N+](=O)[O-])s1` (stereo not given), the AC50 is 6.83 µM. Regarding `CCCCC(=O)NC(c1ccc(OC)c(OC)c1)c1ccc2cccnc2c1O` (stereo not given), the AC50 is 1.83 µM.

Consider `NC(=O)N=Nc1c2[nH]c3ccccc3nc-2c2ccccc12`, for which the concentration at half-maximal activity (AC50) was 3.89 µM. As for `O/N=C/c1ccccc1OCc1ccc(Cl)cc1`, the AC50 was 5.07 µM. As for `C=CCNC(=S)N1CCC(Cc2ccccc2)CC1`, the AC50 was 11.3 µM.

`O=C(N[C@@H](Cc1ccccc1)C(=O)CCl)OCc1ccccc1`: the AC50 is 2.19 µM. With `CC(=O)C1=C(c2cccc([N+](=O)[O-])c2)N(C(C)=O)n2c(C)nnc2S1`, the AC50 was 2.7 µM. The result for `O=C1c2ccccc2-n2c1nc1ccccc1c2=O` reads 1.83 µM.

Turning to `CCOC(=O)c1ccc(-c2ccc(C3Nc4ccccc4C(=O)N3O)o2)cc1` (stereo not given), the AC50 is 3.91 µM.

For the compound `Cc1c(C(=O)NCCSCc2cccc(C(F)(F)F)c2)cnn1-c1ccc(Cl)cc1`, the half-maximal activity concentration (AC50) was 6.1 µM. `COc1ccc(-c2cc(C(=O)NNC(=S)NC(=O)c3c(-c4ccccc4)noc3C)[nH]n2)cc1`: the AC50 was 2.69 µM. The result for `COc1cccc(/C=N/NC(=O)c2cc(-c3cccn3C)n[nH]2)c1O` reads 10.2 µM.

Take `O=C(O)CSc1nc(-c2ccc(Cl)cc2)nc2c1oc1ccccc12`: the AC50 was 6.02 µM.

Consider `CCCCn1c(=O)c(C(=O)NCc2ccncc2)c(O)c2ccccc21`, for which the AC50 is 4.99 µM. As for `NNC(=O)c1ccc2nc(-c3ccc(Br)cc3)cn2c1`, the AC50 was 6.47 µM. As for `CC12CC3(C)CC(C)(C1)CC(NC(=O)N1CCCC1)(C2)C3`, the half-maximal activity concentration (AC50) is 1.7 µM. `CNc1ccc2oc(C[C@H]3O[C@@]4(CC[C@H]3C)O[C@H]([C@H](C)C(=O)c3ccc[nH]3)[C@H](C)C[C@H]4C)nc2c1C(=O)O`: the AC50 is 0.662 µM. For `CC(C)(C)c1ccc(Oc2ccc(N)cc2)cc1`, the AC50 was 7.32 µM. On to `O=C(/C(=N/N=C/c1ccc(O)c(O)c1O)c1ccccc1)c1ccccc1`, for which the AC50 is 6.09 µM. For the compound `CC(C)CN=Cc1c(O)c([N+](=O)[O-])cc2oc3c(c12)CCCC3`, the AC50 is 1.33 µM.

Regarding `O=c1[nH]c(=O)n(C2OC(CO)C(O)C2O)cc1F` (stereo not given), the AC50 is 5.04 µM. The result for `O=C(CN1CC[n+]2c(-c3cccs3)csc21)c1ccc(-c2ccccc2)cc1` reads 7.25 µM; that for `CCOC(=O)c1cc2c(=Cc3ccc(N(C)C)cc3)c3ccccc3n2[n+]1C`, 3.75 µM; that for `CN(C)c1ccc(C=c2c3ccccc3n3c2cc(-c2ccc(Cl)cc2)[n+]3C)cc1`, 7.4 µM. Regarding `Cn1nc(C(F)(F)F)c(C#N)c1N1CCN(c2ccc(F)cc2)CC1`, the AC50 is 7.37 µM. Consider `O=C1c2ccccc2C(=O)c2c1oc(C(F)(F)F)c2C(=O)c1ccccc1`, for which the AC50 is 1 µM. `COc1nc(NC23CC4CC(CC(C4)C2)C3)nc(OC)n1`: the AC50 was 10.9 µM. Turning to `COc1ccc2[nH]c(=O)c(CN(Cc3cccnc3)C(=O)Nc3ccccc3)cc2c1`, the AC50 was 6.16 µM. As for `Cc1ccc(C2(c3ccc(C)cc3)CC2C(=O)Nc2ccc([N+](=O)[O-])cc2O)cc1` (stereo not given), the figure is 5.44 µM. The result for `O=c1c(/C=N/O)coc2ccc(Cl)cc12` reads > 12 µM (inactive); that for `COc1ccc2c(c1)[C@H]1[C@H](CO2)[C@H](c2ccccc2)[C@]2(C)C(=O)Nc3ccc(Cl)cc3C(=O)N12`, > 12 µM (inactive). For `CCCn1nc(C(=O)N2CCN(S(=O)(=O)c3ccc(C)c(C)c3)CC2)c2ccccc2c1=O`, the AC50 was 6.13 µM.

With `CCCCC(=O)NC(c1ccco1)c1cc(Cl)c2cccnc2c1O` (stereo not given), the AC50 was 2 µM. For the compound `COc1ccc(C(=O)c2c(C(F)(F)F)oc3c2C(=O)c2ccccc2C3=O)cc1OC`, the AC50 was 6.24 µM. Regarding `c1ccc(C(=NNc2nc3ccccc3s2)c2ccccn2)cc1`, the AC50 was 2.52 µM.

As for `COc1ccc(N(C(=O)c2ccncc2)S(=O)(=O)c2ccc(F)cc2)cc1`, the AC50 is 5.25 µM. Take `CN(C)c1ccc(C=c2c3cc(O)ccc3n3c2cc(-c2ccccc2)[n+]3C)cc1`: the AC50 is 2.88 µM. The result for `Clc1ccc(C(Cn2ccnc2)OCc2c(Cl)cccc2Cl)c(Cl)c1` (stereo not given) reads 0.241 µM; that for `O=c1c(O)c(-c2ccccc2)oc2ccccc12`, 5.37 µM. `CC(C)(C)c1ccc(-n2nc(C#N)c(Cl)cc2=O)cc1`: the concentration at half-maximal activity (AC50) is 6.03 µM. As to `O=C(Nc1ccc(Br)c(C(F)(F)F)c1)c1ccccc1`, the concentration at half-maximal activity (AC50) was 4.78 µM.

In the case of `Cc1ccc2oc(-c3ccccc3)c(C(=O)O)c(=O)c2c1`, the AC50 was 5.94 µM. With `CC(=O)c1c(C)oc2c1C(=O)c1ccccc1C2=O`, the AC50 was 5.09 µM. As for `COc1ccc(-c2oc3ccccc3c2C#Cc2cncn2C)cc1`, the AC50 was 4.94 µM. As for `C=CS(=O)(=O)c1sc(Cl)c(N2CCOCC2)c1[N+](=O)[O-]`, the figure is 1.91 µM; as for `CC1=NN(C(N)=S)C(=O)C1N=Nc1cccc(Cl)c1C` (stereo not given), 3.3 µM; as for `Cc1ccc(-c2c3c(nc4sc(C(N)=O)c(N)c24)CCCC3)o1`, 6.13 µM. For the compound `O=C1OC(c2ccccc2)=NC12CC2c1ccc(Cl)cc1` (stereo not given), the AC50 is 2.2 µM. The result for `O=C(Oc1ccc(N(C(=O)c2ccncc2)S(=O)(=O)c2ccc(Cl)cc2)cc1)c1ccncc1` reads 5.85 µM; that for `COc1ccc(C(=O)NC(=S)NNC(=O)CCc2ccccc2)cc1`, 5.29 µM. As for `Cc1nc2c(o1)C(=O)c1ccccc1C2=Nc1ccccc1`, the figure is 5.02 µM. As for `CCCS(=O)(=O)c1c(S(=O)(=O)CCC)c2c(C)cccn2c1C(=O)N/N=C/c1cc(O)cc(O)c1`, the figure is 3.51 µM. Regarding `O=C(c1ccccc1)N1C(=O)C(c2ccccc2)Oc2ccccc21` (stereo not given), the AC50 is 0.937 µM. Consider `Cc1cc(/C=C2\SC(=S)N(C)C2=O)c(C)n1-c1ccc(O)cc1`, for which the AC50 was 3.33 µM. `C=CCn1c(-c2cc(-c3ccc(C)cc3)nc3ccccc23)n[nH]c1=S`: the AC50 was 5.81 µM. Turning to `CCCCCCCCCCCCCC(=O)NO`, the AC50 is 0.727 µM. The result for `O=C(Nc1nnc(-c2ccccc2)o1)c1ccc(Cl)cc1` reads 1.84 µM; that for `CCc1ccc([C@@H]2CC=C(C(=O)O)[C@H](c3ccc(Cl)cc3)N2S(=O)(=O)c2ccc(C)cc2)cc1`, 5.39 µM; that for `CCc1ccc(OCc2n[nH]c(=S)n2Cc2ccccc2)cc1`, 5.29 µM. Take `COc1ccc(-c2sc3ccccc3c2C#Cc2cncn2C)cc1`: the AC50 was 6.77 µM. In the case of `O=C1C(=C(I)I)c2ccccc2-c2ccccc21`, the AC50 was 5.61 µM.

As usually defined, the AC50 is the midpoint of the concentration-response curve, whichever way the signal moves.
